Assay: xn = mol fraction of the nth substance listed
Conditions: 101 kPa, Liquid; for mass density: Vibrating tube method; for speed of sound: fixed-path interferometer; for viscosity: Capillary tube (Ostwald / Ubbelohde) method

CCCCOCCO [2-butoxyethan-1-ol] + CCCCCCCCO
Conditions	mass density, 303.15 K [kg/m3]	mass density, 308.15 K [kg/m3]	mass density, 313.15 K [kg/m3]	speed of sound, 303.15 K [m/s]	speed of sound, 308.15 K [m/s]	speed of sound, 313.15 K [m/s]	viscosity, 308.15 K [mPa·s]
x1 = 0.053	–	818.004	814.437	1328.1	1311.3	1294.9	5.048
x1 = 0.1049	–	–	–	–	–	–	4.78
x1 = 0.105	–	821.021	817.45	1325.4	1308.8	1292.3	–
x1 = 0.167	–	824.71	821.134	1321.7	1305.5	1289.2	4.442
x1 = 0.2004	–	826.746	823.153	1319.7	1303.3	1287.3	4.298
x1 = 0.2561	–	830.229	826.589	1316.7	1300.5	1284.5	4.049
x1 = 0.3039	–	833.292	829.618	1314.2	1298.2	1282.2	3.878
x1 = 0.4046	–	839.998	836.231	1309.1	1293.1	1277.4	3.519
x1 = 0.5013	850.582	846.771	842.934	1304.5	1288.7	1273	3.229
x1 = 0.6004	857.95	854.07	850.161	1300.3	1284.5	1268.8	2.965
x1 = 0.7009	865.804	861.87	857.881	1296.5	1280.5	1264.7	2.753
x1 = 0.8027	874.181	870.213	866.131	1293.3	1277	1261.1	2.545
x1 = 0.852	878.409	874.403	870.301	1292	1275.4	1259.5	2.457
x1 = 0.9007	882.718	878.687	874.538	1290.8	1274.1	1258	2.369
x1 = 0.9512	887.379	883.226	879.067	1289.8	1273	1256.6	2.281
